Results from patent US9192577B2, “Pharmaceutical compositions comprising a basic drug compound, a surfactant, and a physiologically tolerable water soluble acid” (Janssen Pharmaceutica NV, priority 2002, dated 2015).

Experiments:
[1] = cytotoxicity (CC50) in mock-infected MT-4 cells (MTT); assay type: cell-based; settings: human, mock-infected MT-4 cells, −log CC50, MTT
Protocol: (§1) A rapid, sensitive and automated assay procedure was used for the in vitro evaluation of anti-HIV agents. […] Inhibition of the HIV-induced cytopathic effect was used as the end point. The viability of both HIV- and mock-infected cells was assessed spectrophotometrically via the in situ reduction of 3-(4,5-dimethylthiazol-2-yl)-2,5-diphenyltetrazolium bromide (MTT). The 50% cytotoxic concentration (CC50 in M) was defined as the concentration of compound that reduced the absorbance of the mock-infected control sample by 50%. The percent protection achieved by the compound in HIV-infected cells was calculated by the following formula:
(§2) [formula] whereby (ODT)HIV is the optical density measured with a given concentration of the test compound in HIV-infected cells; (ODC)HIV is the optical density measured for the control untreated HIV-infected cells; (ODC)MOCK is the optical density measured for the control untreated mock-infected cells; all optical density values were determined at 540 nm. The dose achieving 50% protection according to the above formula was defined as the 50% inhibitory concentration (IC50 in M). The ratio of CC50 to IC50 was defined as the selectivity index (SI).

[2] = tested on: HIV; assay: in vitro anti-HIV assay: inhibition of HIV-induced cytopathic effect in MT-4 cells (MTT); assay type: cell-based; settings: for pSI: pSI = pCC50-pIC50 (selectivity index CC50/IC50); for IC50: Human immunodeficiency virus 1, MT4, −log IC50, 50% protection against HIV-induced cytopathic effect in MT-4 cells, MTT
Protocol: as §1, §2

[3] = effect of surfactant on solubility and stability of the supersaturated condition (0.01 N HCl, 37° C.); assay type: physicochemical
Protocol: Aqueous solutions of 2.5% (w/v) of hydroxypropyl-β-cyclodextrin (HPβCD), 2.5% (w/v) of Vit E TPGS [2], 2.5% (w/v) Cremophor RH 40 [3], 2.5% (w/v) of sodium lauryl sulfate or 2.5% (w/v) of PEG 4000 [5] in 0.01 N HCl at 37° C. were prepared.
To 10 ml of these solutions, with stirring, a concentrated solution of R278474 or R165335 in N,N-dimethylformamide (100 mg/ml) was added dropwise until precipitation of the drug compound was observed. After 5, 30, 60 and 120 minutes, the concentration of dissolved R278474 or R165335 expressed in mg % (i.e. the number of mg dissolved in 100 ml) was determined.

[4] = [1] 2.5% (w/v) HPβCD in 0.01 N HCl, 5 minutes
[5] = [1] 2.5% (w/v) HPβCD in 0.01 N HCl, 30 minutes
[6] = [1] 2.5% (w/v) HPβCD in 0.01 N HCl, 60 minutes
[7] = [1] 2.5% (w/v) HPβCD in 0.01 N HCl, 120 minutes
[8] = [5] 2.5% (w/v) PEG 4000 in 0.01 N HCl, 5 minutes
[9] = [5] 2.5% (w/v) PEG 4000 in 0.01 N HCl, 30 minutes
[10] = [5] 2.5% (w/v) PEG 4000 in 0.01 N HCl, 60 minutes
[11] = [5] 2.5% (w/v) PEG 4000 in 0.01 N HCl, 120 minutes

melting point [°C]	SMILES	CC50 [1] [µM]	pSI [2]	also measured
250	Cc1cc(/C=C\Cl)cc(C)c1Nc1ccnc(Nc2ccc(C#N)cc2)n1	–	–	–
223	Cc1cc(C=C(Br)Br)cc(C)c1Nc1ccnc(Nc2ccc(C#N)cc2)n1	–	–	–
212	CCCCN(C)C(=O)/C=C/c1cc(C)c(Oc2ccnc(Nc3ccc(C#N)cc3)n2)c(C)c1	–	–	–
132	Cc1ccc(N(C)C)c(C)c1Nc1ccnc(Nc2ccc(C#N)cc2)n1	–	–	–
120	Cc1cc(/C=C/c2cccnc2)cc(C)c1Nc1ccnc(Nc2ccc(C#N)cc2)n1	–	–	–
150	Cc1cc(C(=O)CC#N)cc(C)c1Nc1ccnc(Nc2ccc(C#N)cc2)n1	–	–	–
–	Cc1cc(-c2ccco2)cc(C)c1Nc1ccnc(Nc2ccc(C#N)cc2)n1 [Compound 3]	3.16	−2.9	–
–	CO/N=C(\c1cc(C)c(Nc2ccnc(Nc3ccc(C#N)cc3)n2)c(C)c1)C(C)C [Compound 9]	15.8	−4	–
–	C/C(C#N)=C/c1cc(C)c(Nc2ccnc(Nc3ccc(C#N)cc3)n2)c(C)c1 [Compound 11]	2	−3.5	IC50 [2]: 0.000631 µM
–	Cc1cc(C(O)CC#N)cc(C)c1Nc1ccnc(Nc2ccc(C#N)cc2)n1 (centres unmarked) [Compound 18]	12.6	−4.0	–
–	Cc1cc(-c2ccsc2)cc(C)c1Nc1ccnc(Nc2ccc(C#N)cc2)n1 [Compound 21]	12.6	−3.5	–
–	Cc1cc(CCC#N)cc(C)c1Nc1ccnc(Nc2ccc(C#N)cc2)n1 [Compound 24]	2	−3.4	–
–	CC(=O)c1cccc(-c2cc(C)c(Nc3ccnc(Nc4ccc(C#N)cc4)n3)c(C)c2)c1 [Compound 34]	15.8	−3.2	–
–	Cc1cc(/C=C(\C#N)c2cccs2)cc(C)c1Nc1ccnc(Nc2ccc(C#N)cc2)n1 [Compound 49]	15.8	−3.2	–
–	Cc1cc(Cn2ccnc2)cc(C)c1Nc1ccnc(Nc2ccc(C#N)cc2)n1 [Compound 70]	15.8	−3.3	–
–	Cc1cc(CN2CCSC2)cc(C)c1Nc1ccnc(Nc2ccc(C#N)cc2)n1 [Compound 78]	12.6	−3.5	–
–	CCN(Cc1ccncc1)Cc1cc(C)c(Nc2ccnc(Nc3ccc(C#N)cc3)n2)c(C)c1 [Compound 79]	5.01	−2.7	–

melting point [°C]	SMILES	CC50 [1] [µM]	pSI [2]	also measured
140	CCOCc1ccc(Oc2ccnc(Nc3ccc(C#N)cc3)n2)c(C)c1 [Compound 105]	> 100	<−3.2	–
193	Cc1cc(/C=C(/C#N)C(=O)C(C)(C)C)cc(C)c1Nc1ccnc(Nc2ccc(C#N)cc2)n1 [Compound 106]	6.31	−2.5	–
254	Cc1cc(/C=C(/F)C#N)cc(C)c1Nc1ccnc(Nc2ccc(C#N)cc2)n1 [Compound 110]	–	−4.3	IC50 [2]: 0.00251 µM
> 264	Cc1cc(/C=C/C(=O)N(C)C)cc(C)c1Nc1ccnc(Nc2ccc(C#N)cc2)n1 [Compound 112]	12.6	−4.2	–
168	Cc1cc(/C=C/C(=O)N(C)CCC#N)cc(C)c1Nc1ccnc(Nc2ccc(C#N)cc2)n1 [Compound 114]	7.94	−3.5	–
–	Cc1cc(-n2cccc2)cc(C)c1Oc1ccnc(Nc2ccc(C#N)cc2)n1 [Compound 118]	79.4	<−4.1	–
–	Cc1cc(/C(Cl)=C\C#N)cc(C)c1Nc1ccnc(Nc2ccc(C#N)cc2)n1 [Compound 124]	20	−3.8	–
> 260	Cc1cc(-c2ccc(C#N)o2)cc(C)c1Nc1ccnc(Nc2ccc(C#N)cc2)n1 [Compound 126]	12.6	−3.5	–
–	Cc1cc(/C=C/c2cccnc2)cc(C)c1Nc1ccnc(Nc2ccc(C#N)cc2)n1 [Compound 145]	5.01	−3.4	–
–	Cc1cc(/C=C/C(=O)N2CCN(C)CC2)cc(C)c1Nc1ccnc(Nc2ccc(C#N)cc2)n1 [Compound 155]	0.501	−2.5	–
–	Cc1cc(/C=C/C(=O)N2CCOCC2)cc(C)c1Nc1ccnc(Nc2ccc(C#N)cc2)n1 [Compound 156]	7.94	−2.6	–
–	Cc1cc(/C=C/C(=O)N2CC=CC2)cc(C)c1Oc1ccnc(Nc2ccc(C#N)cc2)n1 [Compound 209]	12.6	−3.7	–
–	Cc1cc(/C=C/C(=O)N(C)C2CCN(C)CC2)cc(C)c1Oc1ccnc(Nc2ccc(C#N)cc2)n1 [Compound 210]	15.8	−3.5	–
–	Cc1cc(/C=C/C(=O)N2CCOCC2)cc(C)c1Oc1ccnc(Nc2ccc(C#N)cc2)n1 [Compound 216]	10	−3.6	–
–	Cc1cc(C#N)cc(C)c1Oc1nc(Nc2ccc(C#N)cc2)nc(N)c1Br [Compound R165335, 4-[[6-amino-5-bromo-2-[(4-cyanophenyl)amino]-4-pyrimidinyl]oxy]-3,5-dimethylbenzonitrile]	–	–	concentration of dissolved drug [3, 4]: 0.04 mg %; concentration of dissolved drug [3, 5]: 0.12 mg %; concentration of dissolved drug [3, 6]: 0.17 mg %; concentration of dissolved drug [3, 7]: 0.07 mg %; concentration of dissolved drug ([3]; [3] 2.5% (w/v) Cremophor RH 40 in 0.01 N HCl, 5 minutes): 54.20 mg %; concentration of dissolved drug ([3]; [3] 2.5% (w/v) Cremophor RH 40 in 0.01 N HCl, 30 minutes): 24.88 mg %; concentration of dissolved drug ([3]; [3] 2.5% (w/v) Cremophor RH 40 in 0.01 N HCl, 60 minutes): 20.06 mg %; concentration of dissolved drug ([3]; [3] 2.5% (w/v) Cremophor RH 40 in 0.01 N HCl, 120 minutes): 18.44 mg %; concentration of dissolved drug ([3]; [4] 2.5% (w/v) sodium lauryl sulfate in 0.01 N HCl, 5 minutes): 35.09 mg %; concentration of dissolved drug ([3]; [4] 2.5% (w/v) sodium lauryl sulfate in 0.01 N HCl, 30 minutes): 37.85 mg %; concentration of dissolved drug ([3]; [4] 2.5% (w/v) sodium lauryl sulfate in 0.01 N HCl, 60 minutes): 38.80 mg %; concentration of dissolved drug ([3]; [4] 2.5% (w/v) sodium lauryl sulfate in 0.01 N HCl, 120 minutes): 38.35 mg %; concentration of dissolved drug [3, 8]: 0.02 mg %; concentration of dissolved drug [3, 9]: 0.04 mg %; concentration of dissolved drug [3, 10]: 0.07 mg %; concentration of dissolved drug [3, 11]: 0.04 mg %
–	Cc1cc(C=CC#N)cc(C)c1Nc1ccnc(Nc2ccc(C#N)cc2)n1 [Compound R278474, 4-[[4-[[4-(2-cyanoethenyl)-2,6-dimethylphenyl]amino]-2-pyrimidinyl]amino]benzonitrile]	–	–	concentration of dissolved drug ([3]; 0.01N HCl, 5 minutes): 18.02 mg %; concentration of dissolved drug ([3]; 0.01N HCl, 30 minutes): 16.30 mg %; concentration of dissolved drug ([3]; 0.01N HCl, 60 minutes): 15.90 mg %; concentration of dissolved drug ([3]; 0.01N HCl, 120 minutes): 15.95 mg %; concentration of dissolved drug [3, 4]: 27.68 mg %; concentration of dissolved drug [3, 5]: 24.80 mg %; concentration of dissolved drug [3, 6]: 24.40 mg %; concentration of dissolved drug [3, 7]: 24.10 mg %; concentration of dissolved drug ([3]; [2] 2.5% (w/v) Vit E TPGS in 0.01 N HCl, 5 minutes): 91.75 mg %; concentration of dissolved drug ([3]; [2] 2.5% (w/v) Vit E TPGS in 0.01 N HCl, 30 minutes): 83.50 mg %; concentration of dissolved drug ([3]; [2] 2.5% (w/v) Vit E TPGS in 0.01 N HCl, 60 minutes): 76.25 mg %; concentration of dissolved drug ([3]; [2] 2.5% (w/v) Vit E TPGS in 0.01 N HCl, 120 minutes): 75.25 mg %; concentration of dissolved drug [3, 8]: 23.60 mg %; concentration of dissolved drug [3, 9]: 21.60 mg %; concentration of dissolved drug [3, 10]: 20.60 mg %; concentration of dissolved drug [3, 11]: 20.10 mg %
